Laboratory results published in US11331020B2 (TRUSTEES OF BOSTON UNIVERSITY, priority 2020, dated 2022).
Like-named read-outs stand apart in the source and are kept apart here.

Key:
NicA2 [1] = target: T1, NicA2 (Pseudomonas putida, UniProt F8G0P2, N462Y/W427Y); assay type: biochemical, Pseudomonas putida S16; conditions: FIG. 17C (N462Y/W427Y mutant), FIG. 10D
T1 construct: poly-histidine; made in house; host or cells: E. coli BL21 (DE3)
Description: (§1) Chronoamperometric responses were recorded overtime, with a potential −0.2 V (versus Ag/AgCl). At the beginning of the experiment, 30 μL 1×DPBS was added to the biosensor, followed by an addition of 30 μL nicotine solution at predefined time point. To evaluate the selectivity of the sensor chronoamperometric responses to nicotine were measured in the presence of the common interferents at relevant physiological concentrations in sweat (see e.g., Table 4). Addition of 30 μL 200 μM nicotine solution to 30 μL mixture was performed at a predefined time point and the current was recorded over time. Similar experiments were performed to evaluate the selectivity of the sensor to cotinine. Current was recorded where 30 μL 200 μM nicotine solution was added to 30 μL cotinine solutions.
(§2) Chronoamperometric responses were recorded at −0.2 V vs. a Ag/AgCl reference electrode.

NicA2 [2] = target: T2, NicA2 (Pseudomonas putida, UniProt F8G0P2); assay type: biochemical, Pseudomonas putida S16; conditions: for effect on the response to nicotine: 200 μM nicotine solution added
T2 construct: poly-histidine; made in house; host or cells: E. coli BL21 (DE3)
T2 sequence (F8G0P2 39-482): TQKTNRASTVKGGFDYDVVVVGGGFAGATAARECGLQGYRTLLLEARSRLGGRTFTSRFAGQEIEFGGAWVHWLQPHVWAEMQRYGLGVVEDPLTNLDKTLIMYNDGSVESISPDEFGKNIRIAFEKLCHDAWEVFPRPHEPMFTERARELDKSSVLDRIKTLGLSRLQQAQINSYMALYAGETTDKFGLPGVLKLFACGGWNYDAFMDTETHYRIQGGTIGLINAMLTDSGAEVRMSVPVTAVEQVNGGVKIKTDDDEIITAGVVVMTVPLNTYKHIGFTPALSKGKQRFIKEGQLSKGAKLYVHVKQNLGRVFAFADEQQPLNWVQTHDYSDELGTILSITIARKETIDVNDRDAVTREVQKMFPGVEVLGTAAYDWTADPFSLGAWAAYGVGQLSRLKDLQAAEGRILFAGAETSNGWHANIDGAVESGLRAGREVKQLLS
Description: as §1, §2

[3] = Activity of NicA2 mutants versus wild type NicA2; assay type: biochemical; conditions: compared to wild type and other NicA2 mutants
Source text: In some embodiments, the size of the working electrode is in the range of 5-8 π mm^2, or 8-10π mm^2, or 10-12π mm^2, or 12-15π mm^2, or greater than 15π mm^2.

Molecule: CN1C(=O)CC[C@H]1c1cccnc1 [cotinine]
- current produced by NicA2 with the analyte (NicA2 [1]): did not produce a current
- effect on the response to nicotine (NicA2 [2]; chronoamperometry): minimally affected the nicotine response
- effect on the response to nicotine (NicA2 [2]; chronoamperometry, listed as Cotinine): minimal effect upon the nicotine response

Molecule: c1cncc(C2=NCCC2)c1 [myosmine]
- reduction of signal (NicA2 [2]; added during a chronoamperometric experiment with nicotine): approximately 50%
- response from the substance alone (NicA2 [2]; chronoamperometry, no nicotine): Minimal responses

B1: N462Y/W427Y: mutant NicA2 enzyme, SEQ ID NO: 4 (protein)
chain: MSDKTKTNEGFSRRSFIGSAAVVTAGVAGLGAIDAASATQKTNRASTVKGGFDYDVVVVGGGFAGATAARECGLQGYRTLLLEARSRLGGRTFTSRFAGQEIEFGGAWVHWLQPHVWAEMQRYGLGVVEDPLTNLDKTLIMYNDGSVESISPDEFGKNIRIAFEKLCHDAWEVFPRPHEPMFTERARELDKSSVLDRIKTLGLSRLQQAQINSYMALYAGETTDKFGLPGVLKLFACGGWNYDAFMDTETHYRIQGGTIGLINAMLTDSGAEVRMSVPVTAVEQVNGGVKIKTDDDEIITAGVVVMTVPLNTYKHIGFTPALSKGKQRFIKEGQLSKGAKLYVHVKQNLGRVFAFADEQQPLNWVQTHDYSDELGTILSITIARKETIDVNDRDAVTREVQKMFPGVEVLGTAAYDWTADPFSLGAYAAYGVGQLSRLKDLQAAEGRILFAGAETSNGWHAYIDGAVESGLRAGREVKQLLSLEHHHHHH
- oxidation activity of NicA2 mutant [3]: increased oxidative activity
